# Assays:
# [1] = Quantification of NP uptake in organs by VSM magnetometry; type: in vivo, NOD and B6 mice
# Protocol: For mechanistic studies, MRI and histological studies, 3 B6 mice/time points aged 10 and 12 weeks were used as control. 3 Female NOD mice/time points were used as pre-diabetic mice between 10 and 12 weeks of age. NPs were administrated intravenously (i.v.) as a bolus of 200 μmolFe/kg diluted in 200 μL of vehicle (NaCl 0.9%/Glucose 5%).
# Quantification of NP uptake in organs by VSM: Pancreas, lung, liver, spleen, kidneys and PLN were collected 1 h, 5 h, 24 h, 48 h and 72 h after intravenous injection of USPIO-PEG-ITE-P3UMPI (200 μmolFe/kg) or vehicle (NaCl 0.9%/Glucose 5%) in NOD and B6 mice. Collected organs were frozen in liquid nitrogen, lyophilized and ground to a powder using a mortar and pestle. Sample magnetism was analyzed by a VSM (VSM Quantum Design, Versalab) at room temperature. Amount of iron per organ was calculated from the NP magnetization at saturation (expressed in emu/g of iron).
# [2] = biological target: T1, aryl hydrocarbon receptor (AhR) (Mus musculus, UniProt P30561); experiment: ITE biological activity: AhRR gene expression in BMDCs by qPCR; type: cell-based; details: 24 h, 14 μmol·L^−1 ITE or equivalent amount as NPs
# T1 sequence (P30561 10-848): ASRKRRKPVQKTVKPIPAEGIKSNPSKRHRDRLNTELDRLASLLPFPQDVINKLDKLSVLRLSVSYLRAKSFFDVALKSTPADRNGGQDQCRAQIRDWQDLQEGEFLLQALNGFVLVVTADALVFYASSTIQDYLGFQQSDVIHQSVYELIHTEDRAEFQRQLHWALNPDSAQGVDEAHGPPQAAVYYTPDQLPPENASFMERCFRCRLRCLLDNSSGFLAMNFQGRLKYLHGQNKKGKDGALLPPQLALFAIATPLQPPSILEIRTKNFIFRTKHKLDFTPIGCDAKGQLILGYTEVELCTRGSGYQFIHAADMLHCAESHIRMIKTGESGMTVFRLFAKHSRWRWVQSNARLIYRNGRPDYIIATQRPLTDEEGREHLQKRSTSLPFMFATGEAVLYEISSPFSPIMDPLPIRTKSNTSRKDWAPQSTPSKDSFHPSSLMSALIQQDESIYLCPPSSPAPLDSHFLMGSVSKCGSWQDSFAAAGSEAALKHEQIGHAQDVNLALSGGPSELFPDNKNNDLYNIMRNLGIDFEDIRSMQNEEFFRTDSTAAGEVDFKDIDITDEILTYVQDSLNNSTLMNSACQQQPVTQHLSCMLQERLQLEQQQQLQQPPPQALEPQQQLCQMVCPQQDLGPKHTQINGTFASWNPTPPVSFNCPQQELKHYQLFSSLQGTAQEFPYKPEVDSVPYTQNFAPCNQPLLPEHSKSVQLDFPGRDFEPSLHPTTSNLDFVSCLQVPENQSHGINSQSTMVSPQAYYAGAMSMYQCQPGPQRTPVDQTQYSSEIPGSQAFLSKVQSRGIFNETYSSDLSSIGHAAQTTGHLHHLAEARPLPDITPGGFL
# Protocol: Mouse bone marrow dendritic cells: BMDCs were prepared from progenitor cells isolated from the femurs and tibias of female mice between 8 and 10 wk of age, as previously described in Inaba et al. (“Generation of large numbers of dendritic cells from mouse bone marrow cultures supplemented with granulocyte/macrophage colony-stimulating factor”; J Exp Med 1992, 176 (6), 1693-702). Bone marrow cells were plated on 15 cm petri dishes cell culture for a final volume of 20 mL per plate in Iscove's Modified Dulbecco's Medium (IMDM) containing 10% FCS, penicillin/streptomycin 100 μg/ml, L-Glutamine 2 mmol.L^−1 and β-mercapthoethanol 50 μmol.L^−1, and supplemented with 10 ng/ml murine GM-CSF (R&D Systems) for 8 days. Half of the medium was replaced on day 4 of culture.
# ITE biological activity. On day 7 of BMDC culture, cells were incubated 24 h with 14 μmol·L^−1 ITE in 0.2% DMSO and equivalent amount of ITE as USPIO-PEG-ITE NPs in water. On day 8, total RNA was prepared by the RNAspin mini kit (GE Healthcare). cDNA was obtained using the RevertAid RT Reverse Transcription Kit (Thermo Scientific) with 1 μg of total RNA. Quantitative PCR (qPCR) was performed with the SYBR Green method using Takyon ROX qPCR SYBR MasterMix blue dTTP (Eurogentec).
# Solubility = type: physicochemical
compound,measurement,setting,value
"COC(=O)c1csc(C(=O)c2c[nH]c3ccccc23)n1 [ITE, 2-(1′H-indole-3′-carbonyl)-thiazole-4-carboxylic acid methyl ester]",Estimation of drug dose released in pancreas: ITE,"[1]; B6 mice, 1 H after iv injection of USPIO-PEG-ITE-P3UmPI, considering no drug release before pancreas targeting",0.39 mmol
same,Estimation of drug dose released in pancreas: ITE,"[1]; B6 mice, 5 H after iv injection",0.99 mmol
same,Estimation of drug dose released in pancreas: ITE,"[1]; B6 mice, 24 H after iv injection",0 mmol
same,Estimation of drug dose released in pancreas: ITE,"[1]; B6 mice, 48 H after iv injection",0.15 mmol
same,Estimation of drug dose released in pancreas: ITE,"[1]; B6 mice, 72 H after iv injection",0.33 mmol
same,Estimation of drug dose released in pancreas: ITE,"[1]; NOD mice, 1 H after iv injection",1.54 mmol
same,Estimation of drug dose released in pancreas: ITE,"[1]; NOD mice, 5 H after iv injection",2.98 mmol
same,Estimation of drug dose released in pancreas: ITE,"[1]; NOD mice, 24 H after iv injection",0.37 mmol
same,Estimation of drug dose released in pancreas: ITE,"[1]; NOD mice, 48 H after iv injection",1.78 mmol
same,Estimation of drug dose released in pancreas: ITE,"[1]; NOD mice, 72 H after iv injection",0.91 mmol
same,AhRR expression,[2],induced
same,Solubility,Solubility,soluble only in DMSO and ethanol

# Reference: patent publication US20210220481A1, “BIOCOMPATIBLE TOLEROGENIC NANOPARTICLES” (INSERM (Institut National de la Santé et de la Recherche …, priority 2018, published 2021)
